These results are taken from patent US20170333560A1, “Pharmaceutical Composition That Includes A Neutral Carrier Treated With Energy And Related Methods Of Treatment” (priority 2016, published 2017).

Experiment [1] deals with male albino Wistar rats. Kind of experiment: Nomura forced-rotating-wheel swim test. To be noted: compared to controls; single intragastric dose; 10 minutes. Format: in vivo, rat. As to the method: (§1) A study was conducted to evaluate the antidepressant effect of the claimed drug, formulated as a water solution (liquid dosage form) of the activated (potentized) energy-treated carrier, obtained by multiple consecutive dilution of the initial matrix solution in an aqueous-alcoholic diluent, combined with external mechanical impact—shaking of each resulting dilution, to a degree of 100^200, equivalent to a centesimal (C200) homeopathic dilution (wherein the energy treatment of the initial neutral carrier has been accomplished by exposing it to an electric current caused by a difference of potentials being applied to electrodes placed in the initial liquid carrier and which is proportional in amplitude to an amplified combined, summed up signal, formed by summing the resultant signals—biopotential differences of individual referential derivations recorded in five healthy donors using the internationally recognized 10-20 system, which involves 19 active recording electrodes placed in regular positions all over the scalp and one reference electrode located on the ear-lobe)—further referred to as AP drug, using standard experimental approaches—by examining animals' depression-like behavior (behavioral despair) in the Porsolt forced swimming test and Nomura's model employing forced-rotating-wheel swim test. […]

Experiment [2] deals with male albino Wistar rats. In words: Porsolt forced swimming test. Format: in vivo, rat. To be noted: compared to controls; single intragastric dose. The method, then:
as §1

The test system of experiment [3] is pseudoneurotic disorder in patients with organic brain disease. In words: Study of pseudoneurotic disorder in organic brain disease (anxiety levels, Hamilton scale). Format: in vivo, human. The method, then:
as §1, with “examine” for “evaluate”, “efficacy” for “antidepressant effect”, “summed” for “summed up”, “drug—in treating pseudoneurotic disorder” for “drug, using standard experimental approaches—by examining animals' depression-like behavior (behavioral despair)”, “patients with organic brain disease.” for “the Porsolt forced swimming test and Nomura's model employing forced-rotating-wheel swim test.”

Consider `CN(C)CCC=C1c2ccccc2CCc2ccccc21` [reference compound, amitriptyline], for which the “Increase of number of wheel rotations” value in experiment [1] turned out to be 67%. Moreover, in experiment [2], the “Reduction of immobility time” value amounted to 56%.

For the compound `O=C1CN=C(c2ccccc2Cl)c2cc(Br)ccc2N1` [phenazepam], the results for the Hamilton scale score in experiment [3] (after treatment) and in experiment [3] (baseline score) were 31.7±1.5 and 32.8±1.4, respectively.
